Assay results taken from patent US20230293565A1, “USE OF WNT/BETA-CATENIN PATHWAY INHIBITORS TO BLOCK REPLICATION OF SARS-COV-2 AND OTHER PATHOGENIC VIRUSES” (THE GOVERNORS OF THE UNIVERSITY OF ALBERTA, priority 2020, published 2023).
Entries after “also recorded” stand apart in the source; their conditions may differ. Like-named read-outs stand apart in the source and are kept apart here.

Columns and labels:
[1] = system: HCOV-NL63; experiment: HCOV-NL63 plaque assay in Calu3 cells; assay type: cell-based; settings: Calu3 treated 24 h, MOI 0.5, 24 h
Protocol: (§1) FIG. 16. Effect of Wnt/β-catenin inhibitors on other human coronaviruses (HCOVs). Calu3 cells were treated with the indicated concentrations of Wnt/β-catenin inhibitors for 24 hours and then infected with HCOVs NL63 or 229E MOI of 0.5). Twenty-four hours later, media were collected and subjected to plaque assay to determine viral titers. Average titers from there independent experiments are shown.
(§2) Because Wnt/β-catenin inhibitors enhance the IFN response, we hypothesized that these drugs would be effective against other human coronaviruses and potentially other pathogenic RNA viruses such as flaviviruses and alphaviruses. To test this theory, Calu-3 and A549 cells treated with Wnt/β-catenin inhibitors or DMSO for 24 hours were infected with two different seasonal human coronavirus HCOV-NL63 and HCOV-229E for 24 hours or Zika virus or Mayaro virus for 48 and 24 hours respectively.

[2] = system: SARS-CoV-2 (CANADA/VIDO01/2020 strain); assay type: cell-based
[3] = system: HCOV-229E; experiment: HCOV-229E plaque assay in Calu3 cells; assay type: cell-based
Protocol: as §1, §2

[4] = system: type III (IFNλ2) interferon; assay type: cell-based, human; settings: A549 treated 24 h, Sendai virus 8 and 16 hours
[5] = system: Zika virus (ZIKV); experiment: Zika virus plaque assay and qRT-PCR in A549 cells; assay type: cell-based; settings: A549, 1 μM, 24 h pre-treatment, 0.1 MOI
Protocol: FIG. 17. Wnt/β-catenin inhibitors reduce replication of other RNA viruses. A549 cells were treated with Wnt/β-catenin inhibitors (1 μM) or DMSO alone for 24 hours, after which the cells were infected with 0.1 MOI of Zika virus (ZIKV) or Mayaro virus (MAYV). Forty-eight hours later, virus-containing media were subjected to plaque assays and total RNA extracted from cells was subjected to qRT-PCR to determine relative levels of viral RNA. Average viral titers (A,C) and genomic RNA levels (B, D) from drug-treated cells from 3 independent experiments are shown. Error bars represent standard error of the mean. *, P<0.05; **, P<0.01; N.S. (not significant).
as §2

[6] = system: Vero cells; assay type: cell-based, African green monkey; settings: 1 μM (Pyrvinium 100 nM), 48 hours
[7] = system: Mayaro virus (MAYV); assay type: cell-based; settings: A549, 1 μM, 24 h pre-treatment, 0.1 MOI

Molecule | titers of HCOV-NL63 [1] | SARS-CoV-2 replication, drug added 6-hours post-infection (in words) [2] | SARS-CoV-2 replication, drug added 12-hours post-infection (in words) [2] | titers of HCOV-229E [3] | induction of type III IFN (IFNλ2 transcripts) [4] | replication of Zika virus [5] | titers of HCOV-229E ([3]; Calu3 treated 24 h, MOI 0.5, 24 h) | density of peroxisomes in Vero cells [6] | replication of Mayaro virus [7]
Cc1cc(/C=C/c2ccc3cc(N(C)C)ccc3[n+]2C)c(C)n1-c1ccccc1 [Pyrvinium] | significantly reduced | effectively block; also recorded: reduce SARS-CoV-2 replication | reduce SARS-CoV-2 replication | significantly reduced | much more dramatic effects |  |  |  | 
O=C([O-])CCN1C(=O)/C(=C/c2ccc(-c3ccc([N+](=O)[O-])cc3)o2)SC1=S.[K+] [KYA1797K] | significantly reduced | effectively block; also recorded: reduce SARS-CoV-2 replication | reduce SARS-CoV-2 replication |  |  | most potent | significantly reduced | increases peroxisome density | most potent
Cc1cc(-c2ncc(CC(=O)Nc3ccc(-c4cnccn4)cn3)cc2C)ccn1 [LGK-974] |  | effectively block |  |  |  |  |  |  | 
iCRT-14 |  |  |  |  | much more dramatic effects |  |  |  | 
